Experimental findings from ChEMBL document CHEMBL1201861, “Genomics of Drug Sensitity in Cancer screening data, Wellcome Trust Sanger Institute” are described below.

The structures appear in SMILES notation.

In general, IC50 refers to the concentration needed to halve the response being measured. High values mean weaker potency in that assay, low ones greater potency in that assay.

One experiment has as its system A-375. Put plainly: cells. Format: functional, cell-based. As to conditions: Homo sapiens.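 Note: growth inhibition of A375 cells, read out with a cell viability assay.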
Description: SANGER: Inhibition of human A375 cell growth in a cell viability assay.
For `CC1(C)CCC(c2ccc(Cl)cc2)=C(CN2CCN(c3ccc(C(=O)NS(=O)(=O)c4ccc(N[C@H](CCN5CCOCC5)CSc5ccccc5)c(S(=O)(=O)C(F)(F)F)c4)cc3)CC2)C1` [NAVITOCLAX], the IC50 was more than 2 µM.

The test system of the next experiment is PA-1. Briefly: cells. Format: functional, cell-based. As to conditions: Homo sapiens.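 Note: IC50 for suppression of PA-1 cell proliferation, determined with a cell viability read-out.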
Description: SANGER: Inhibition of human PA-1 cell growth in a cell viability assay.
The molecule `CC1(C)CCC(c2ccc(Cl)cc2)=C(CN2CCN(c3ccc(C(=O)NS(=O)(=O)c4ccc(N[C@H](CCN5CCOCC5)CSc5ccccc5)c(S(=O)(=O)C(F)(F)F)c4)cc3)CC2)C1` [NAVITOCLAX] yielded an IC50 of 0.956 µM. That is a sub-micromolar value.

The test system of a further experiment is HT-29. Put plainly: cells. Format: functional, cell-based. The following applies: Homo sapiens.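 Note: growth inhibition of human HT-29 cells, read out by a cell viability assay.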
Description: SANGER: Inhibition of human HT-29 cell growth in a cell viability assay.
`CC1(C)CCC(c2ccc(Cl)cc2)=C(CN2CCN(c3ccc(C(=O)NS(=O)(=O)c4ccc(N[C@H](CCN5CCOCC5)CSc5ccccc5)c(S(=O)(=O)C(F)(F)F)c4)cc3)CC2)C1` [NAVITOCLAX] gave an IC50 of more than 2 µM.

The next experiment relates to HCT-116. Put plainly: cells. Format: functional, cell-based. As to conditions: Homo sapiens.
Description: SANGER: Inhibition of human HCT-116 cell growth in a cell viability assay.
In turn, `CC1(C)CCC(c2ccc(Cl)cc2)=C(CN2CCN(c3ccc(C(=O)NS(=O)(=O)c4ccc(N[C@H](CCN5CCOCC5)CSc5ccccc5)c(S(=O)(=O)C(F)(F)F)c4)cc3)CC2)C1` [NAVITOCLAX] showed an IC50 of more than 2 µM.

Another experiment deals with CAL-85-1. Put plainly: cells. Format: functional, cell-based. As to conditions: Homo sapiens.
Description: SANGER: Inhibition of human CAL-85-1 cell growth in a cell viability assay.
In the case of `CC1(C)CCC(c2ccc(Cl)cc2)=C(CN2CCN(c3ccc(C(=O)NS(=O)(=O)c4ccc(N[C@H](CCN5CCOCC5)CSc5ccccc5)c(S(=O)(=O)C(F)(F)F)c4)cc3)CC2)C1` [NAVITOCLAX], the IC50 is more than 2 µM.

In a further experiment the test system is NCI-H596. Briefly: cells. Format: functional, cell-based. The following applies: Homo sapiens.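 Note: growth inhibition of NCI-H596 cells, read out with a cell viability assay.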
Description: SANGER: Inhibition of human NCI-H596 cell growth in a cell viability assay.
For `CC1(C)CCC(c2ccc(Cl)cc2)=C(CN2CCN(c3ccc(C(=O)NS(=O)(=O)c4ccc(N[C@H](CCN5CCOCC5)CSc5ccccc5)c(S(=O)(=O)C(F)(F)F)c4)cc3)CC2)C1` [NAVITOCLAX], the IC50 was more than 2 µM.

Another experiment concerns KYSE-150 cell line. Put plainly: cells. As to conditions: Homo sapiens. Format: functional, cell-based.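 Note: growth inhibition of human KYSE-150 cells, read out with a cell viability assay.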
Description: SANGER: Inhibition of human KYSE-150 cell growth in a cell viability assay.
With `CC1(C)CCC(c2ccc(Cl)cc2)=C(CN2CCN(c3ccc(C(=O)NS(=O)(=O)c4ccc(N[C@H](CCN5CCOCC5)CSc5ccccc5)c(S(=O)(=O)C(F)(F)F)c4)cc3)CC2)C1` [NAVITOCLAX], the half-maximal inhibitory concentration (IC50) was more than 2 µM.

The test system of the next experiment is UMUC3. Put plainly: cells. Format: functional, cell-based. The following applies: Homo sapiens.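 Note: growth inhibition of human UM-UC-3 cells, read out with a cell viability assay.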
Description: SANGER: Inhibition of human UM-UC-3 cell growth in a cell viability assay.
As to `CC1(C)CCC(c2ccc(Cl)cc2)=C(CN2CCN(c3ccc(C(=O)NS(=O)(=O)c4ccc(N[C@H](CCN5CCOCC5)CSc5ccccc5)c(S(=O)(=O)C(F)(F)F)c4)cc3)CC2)C1` [NAVITOCLAX], the IC50 is more than 2 µM.

In a further experiment the test system is SK-HEP1. Briefly: cells. As to conditions: Homo sapiens. Format: functional, cell-based, SK-HEP-1.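 Note: cell viability readout used to quantify reduction in proliferation of human SK-HEP-1 cells.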
Description: SANGER: Inhibition of human SK-HEP-1 cell growth in a cell viability assay.
As to `CC1(C)CCC(c2ccc(Cl)cc2)=C(CN2CCN(c3ccc(C(=O)NS(=O)(=O)c4ccc(N[C@H](CCN5CCOCC5)CSc5ccccc5)c(S(=O)(=O)C(F)(F)F)c4)cc3)CC2)C1` [NAVITOCLAX], the IC50 was more than 2 µM.

The test system of the next experiment is LN-405. Put plainly: cells. Format: functional, cell-based. As to conditions: Homo sapiens.
Description: SANGER: Inhibition of human LN-405 cell growth in a cell viability assay.
With `CC1(C)CCC(c2ccc(Cl)cc2)=C(CN2CCN(c3ccc(C(=O)NS(=O)(=O)c4ccc(N[C@H](CCN5CCOCC5)CSc5ccccc5)c(S(=O)(=O)C(F)(F)F)c4)cc3)CC2)C1` [NAVITOCLAX], the IC50 was more than 2 µM.

In the next experiment the test system is YKG-1. Put plainly: cells. Format: functional, cell-based. As to conditions: Homo sapiens.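 Note: cell growth inhibition, read out with a viability assay.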
Description: SANGER: Inhibition of human YKG-1 cell growth in a cell viability assay.
Take `CC1(C)CCC(c2ccc(Cl)cc2)=C(CN2CCN(c3ccc(C(=O)NS(=O)(=O)c4ccc(N[C@H](CCN5CCOCC5)CSc5ccccc5)c(S(=O)(=O)C(F)(F)F)c4)cc3)CC2)C1` [NAVITOCLAX]: the IC50 is more than 2 µM.

Another experiment has as its system HCC1937. Briefly: cells. Format: functional, cell-based. The following applies: Homo sapiens.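 Note: growth inhibition measured with a cell viability read-out.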
Description: SANGER: Inhibition of human HCC1937 cell growth in a cell viability assay.
Regarding `CC1(C)CCC(c2ccc(Cl)cc2)=C(CN2CCN(c3ccc(C(=O)NS(=O)(=O)c4ccc(N[C@H](CCN5CCOCC5)CSc5ccccc5)c(S(=O)(=O)C(F)(F)F)c4)cc3)CC2)C1` [NAVITOCLAX], the IC50 was more than 2 µM.

The next experiment relates to BXPC-3. Briefly: cells. The following applies: Homo sapiens. Format: functional, cell-based.
Description: SANGER: Inhibition of human BxPC-3 cell growth in a cell viability assay.
`CC1(C)CCC(c2ccc(Cl)cc2)=C(CN2CCN(c3ccc(C(=O)NS(=O)(=O)c4ccc(N[C@H](CCN5CCOCC5)CSc5ccccc5)c(S(=O)(=O)C(F)(F)F)c4)cc3)CC2)C1` [NAVITOCLAX] registered an IC50 of more than 2 µM.

For a further experiment, the system named is BPH-1. Briefly: cells. As to conditions: Homo sapiens. Format: functional, cell-based.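 Note: cell viability assay measuring growth inhibition of human BPH-1 cells.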
Description: SANGER: Inhibition of human BPH-1 cell growth in a cell viability assay.
`CC1(C)CCC(c2ccc(Cl)cc2)=C(CN2CCN(c3ccc(C(=O)NS(=O)(=O)c4ccc(N[C@H](CCN5CCOCC5)CSc5ccccc5)c(S(=O)(=O)C(F)(F)F)c4)cc3)CC2)C1` [NAVITOCLAX] displayed an IC50 of more than 2 µM.

For the next experiment, the system named is VM-CUB-1. Put plainly: cells. Format: functional, cell-based. The following applies: Homo sapiens.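 Note: cell viability assay measuring growth inhibition of the human VM-CUB-1 cell line.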
Description: SANGER: Inhibition of human VM-CUB-1 cell growth in a cell viability assay.
`CC1(C)CCC(c2ccc(Cl)cc2)=C(CN2CCN(c3ccc(C(=O)NS(=O)(=O)c4ccc(N[C@H](CCN5CCOCC5)CSc5ccccc5)c(S(=O)(=O)C(F)(F)F)c4)cc3)CC2)C1` [NAVITOCLAX] registered an IC50 of more than 2 µM.

A further experiment relates to SK-MEL-24. Briefly: cells. Format: functional, cell-based. The following applies: Homo sapiens.
Description: SANGER: Inhibition of human SK-MEL-24 cell growth in a cell viability assay.
For `CC1(C)CCC(c2ccc(Cl)cc2)=C(CN2CCN(c3ccc(C(=O)NS(=O)(=O)c4ccc(N[C@H](CCN5CCOCC5)CSc5ccccc5)c(S(=O)(=O)C(F)(F)F)c4)cc3)CC2)C1` [NAVITOCLAX], the 50% inhibitory concentration (IC50) was more than 2 µM.

A further experiment concerns G-402. Put plainly: cells. The following applies: Homo sapiens. Format: functional, cell-based.
Description: SANGER: Inhibition of human G-402 cell growth in a cell viability assay.
`CC1(C)CCC(c2ccc(Cl)cc2)=C(CN2CCN(c3ccc(C(=O)NS(=O)(=O)c4ccc(N[C@H](CCN5CCOCC5)CSc5ccccc5)c(S(=O)(=O)C(F)(F)F)c4)cc3)CC2)C1` [NAVITOCLAX] displayed an IC50 of more than 2 µM.

For a further experiment, the system named is KYSE-140. Put plainly: cells. The following applies: Homo sapiens. Format: functional, cell-based.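 Note: cell viability assay measuring growth inhibition in human KYSE-140 cells.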
Description: SANGER: Inhibition of human KYSE-140 cell growth in a cell viability assay.
In turn, `CC1(C)CCC(c2ccc(Cl)cc2)=C(CN2CCN(c3ccc(C(=O)NS(=O)(=O)c4ccc(N[C@H](CCN5CCOCC5)CSc5ccccc5)c(S(=O)(=O)C(F)(F)F)c4)cc3)CC2)C1` [NAVITOCLAX] had a half-maximal inhibitory concentration (IC50) of more than 2 µM.

In the next experiment the test system is KYSE-510. Briefly: cells. Format: functional, cell-based. The following applies: Homo sapiens.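 Note: cell viability readout used to measure how strongly growth of the cell line is suppressed.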
Description: SANGER: Inhibition of human KYSE-510 cell growth in a cell viability assay.
The molecule `CC1(C)CCC(c2ccc(Cl)cc2)=C(CN2CCN(c3ccc(C(=O)NS(=O)(=O)c4ccc(N[C@H](CCN5CCOCC5)CSc5ccccc5)c(S(=O)(=O)C(F)(F)F)c4)cc3)CC2)C1` [NAVITOCLAX] had a half-inhibitory concentration (IC50) of more than 2 µM.

A further experiment concerns SW13. Briefly: cells. As to conditions: Homo sapiens. Format: functional, cell-based.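 Note: IC50 is inhibition of SW13 cell growth, read out with a cell viability assay.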
Description: SANGER: Inhibition of human SW13 cell growth in a cell viability assay.
Take `CC1(C)CCC(c2ccc(Cl)cc2)=C(CN2CCN(c3ccc(C(=O)NS(=O)(=O)c4ccc(N[C@H](CCN5CCOCC5)CSc5ccccc5)c(S(=O)(=O)C(F)(F)F)c4)cc3)CC2)C1` [NAVITOCLAX]: the IC50 is more than 2 µM.

In the next experiment the test system is NCI-H1793. Briefly: cells. Format: functional, cell-based. As to conditions: Homo sapiens.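 Note: cell growth inhibition, read out by a cell viability assay.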
Description: SANGER: Inhibition of human NCI-H1793 cell growth in a cell viability assay.
In turn, `CC1(C)CCC(c2ccc(Cl)cc2)=C(CN2CCN(c3ccc(C(=O)NS(=O)(=O)c4ccc(N[C@H](CCN5CCOCC5)CSc5ccccc5)c(S(=O)(=O)C(F)(F)F)c4)cc3)CC2)C1` [NAVITOCLAX] gave an IC50 of more than 2 µM.

The test system of the next experiment is NCI-H2452. Put plainly: cells. Format: functional, cell-based. As to conditions: Homo sapiens.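 Note: growth inhibition of NCI-H2452 cells, read out with a cell viability assay.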
Description: SANGER: Inhibition of human NCI-H2452 cell growth in a cell viability assay.
In turn, `CC1(C)CCC(c2ccc(Cl)cc2)=C(CN2CCN(c3ccc(C(=O)NS(=O)(=O)c4ccc(N[C@H](CCN5CCOCC5)CSc5ccccc5)c(S(=O)(=O)C(F)(F)F)c4)cc3)CC2)C1` [NAVITOCLAX] had an IC50 of more than 2 µM.
